For data set [1] the following is noted: octanol-water partition coefficient at pH 7.0; cited from earlier work.
The nature of another data set: in vivo. The following applies: rabbit, topical, 0.25 % w/v.
Data set [2] in a line: Slit lamp and fundus exams after topical ocular dosing in rabbits. The following applies: Example 1 formulation, topical twice-a-day to both eyes, treated eyes.

These results are taken from US10010610B2, “Compositions and methods for the treatment of intraocular neovascularization and/or leakage” (Retinal Therapies LLC, priority 2014, dated 2018).

Regarding `COc1cc2nccc(Oc3ccc(NC(=O)C4(C(=O)Nc5ccc(F)cc5)CC4)cc3)c2cc1OC` [cabozantinib], in data set [1], the “Log P” value was 3.0. In addition, the concentration at 5 day in the data set “in vivo” (pigmented, plasma) is under 12.5 ng/mL; in “in vivo” (posterior vitreous), 0.99 nM. Besides, in data set [2], the “slit lamp and fundus exams” value is on record as “completely normal except for slight conjuctival follicle formation”.
